This is an account of results in patent US8551721B2, “Bioluminescent detection of cyanohydroxy benzothiazole compounds” (Promega Corporation, priority 2008, dated 2013).

Holding throughout (assay type): biochemical
In experiment [1] the target is T1, UGT 2B7 (Homo sapiens, UniProt P16662).
T1 construct: purchased BD Gentest; host or cells: insect cells (microsomes)
T1 sequence (P16662 24-529): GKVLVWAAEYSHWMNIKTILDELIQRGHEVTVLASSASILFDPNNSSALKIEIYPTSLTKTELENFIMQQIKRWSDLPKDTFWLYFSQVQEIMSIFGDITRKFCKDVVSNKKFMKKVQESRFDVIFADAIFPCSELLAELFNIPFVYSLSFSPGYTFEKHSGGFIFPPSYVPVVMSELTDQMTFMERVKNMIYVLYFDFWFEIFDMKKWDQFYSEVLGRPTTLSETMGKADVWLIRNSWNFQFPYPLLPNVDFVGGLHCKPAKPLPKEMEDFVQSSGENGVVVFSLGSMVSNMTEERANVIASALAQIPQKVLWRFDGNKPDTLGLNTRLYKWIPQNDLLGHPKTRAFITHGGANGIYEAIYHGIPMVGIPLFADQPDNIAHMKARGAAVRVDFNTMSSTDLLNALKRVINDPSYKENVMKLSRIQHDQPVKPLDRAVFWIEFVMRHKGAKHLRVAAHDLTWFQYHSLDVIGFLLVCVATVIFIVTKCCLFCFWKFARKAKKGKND
The experiment in a line: UGT activity: utilization of substrate by recombinant UGT 2B7 Supersomes. The following applies: 2 hour incubation at 37° C., plus vs minus UDPGA, background corrected. On the procedure: (§1) The invention includes a method of determining activity of the uridine 5′-diphospho-glucuronosyltransferase (UDP-glucuronosyltransferase, or UGT) family enzymes in vitro. Briefly, UGT enzymes from overexpressed insect microsomes (Supersomes™, BD Gentest™) or animal tissue microsomes (Xenotech, BD Gentest™) were incubated with a cyanobenzothiazole substrate of the invention and the cofactor UDP-glucuronic acid (UDPGA) at 37° C. in buffer at physiological pH containing MgCl2 and alamethicin (typically, 50 mM TES, pH 7.5, 8 mM MgCl2, 4 mM UDPGA (Sigma) and 25 μg/mL alamethicin (Sigma)). Following the UGT enzyme reaction, an equal volume of P450-Glo Luciferin Detection Reagent (Promega) containing 15-30 mM D-cysteine-HCl.H2O (Sigma) was added and the plate was mixed and incubated at room temperature, typically for 20-30 minutes. […]
(§2) During this incubation, the cysteine reacts with the cyanobenzathiozole substrate to yield a D-luciferin derivative. […] Therefore, activity of the UGT enzyme can be measured by analyzing the difference (lower or no output) in relative light units (RLU) of a sample in which glucuronidation occurs compared to a sample that was run under the same conditions with no added UDPGA cofactor. […]
(§3) Reactions were assembled in a white 96-well plate. […] After the incubation was completed, the plate was read on a Veritas™ luminometer (Turner BioSystems, Inc.; Sunnyvale, Calif.). […]

Experiment [2] concerns the target T2, UGT 1A10 (Homo sapiens, UniProt Q9HAW8).
T2 construct: purchased BD Gentest; host or cells: insect cells (microsomes)
T2 sequence (Q9HAW8 26-530): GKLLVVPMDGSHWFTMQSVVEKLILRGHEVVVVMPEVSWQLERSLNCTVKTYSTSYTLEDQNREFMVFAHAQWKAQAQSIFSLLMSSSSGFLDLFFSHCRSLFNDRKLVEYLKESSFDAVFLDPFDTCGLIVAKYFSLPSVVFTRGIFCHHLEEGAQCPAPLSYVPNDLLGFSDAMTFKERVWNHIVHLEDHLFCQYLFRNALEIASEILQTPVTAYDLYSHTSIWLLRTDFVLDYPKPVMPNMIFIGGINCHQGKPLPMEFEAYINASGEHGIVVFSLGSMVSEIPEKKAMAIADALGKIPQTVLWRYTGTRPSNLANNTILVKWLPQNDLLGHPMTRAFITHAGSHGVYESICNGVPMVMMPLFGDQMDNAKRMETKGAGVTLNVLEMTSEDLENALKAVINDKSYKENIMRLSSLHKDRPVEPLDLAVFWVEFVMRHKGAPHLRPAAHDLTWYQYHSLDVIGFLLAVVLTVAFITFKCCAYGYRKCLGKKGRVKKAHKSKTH
The experiment in a line: UGT activity: utilization of substrate by recombinant UGT 1A10 Supersomes. The following applies: 2 hour incubation at 37° C., plus vs minus UDPGA, background corrected. As to the method: as §1, §2, §3

In experiment [3] the target is T3, UGT 2B15 (Homo sapiens, UniProt P54855).
T3 construct: purchased BD Gentest; host or cells: insect cells (microsomes)
T3 sequence (P54855 24-530): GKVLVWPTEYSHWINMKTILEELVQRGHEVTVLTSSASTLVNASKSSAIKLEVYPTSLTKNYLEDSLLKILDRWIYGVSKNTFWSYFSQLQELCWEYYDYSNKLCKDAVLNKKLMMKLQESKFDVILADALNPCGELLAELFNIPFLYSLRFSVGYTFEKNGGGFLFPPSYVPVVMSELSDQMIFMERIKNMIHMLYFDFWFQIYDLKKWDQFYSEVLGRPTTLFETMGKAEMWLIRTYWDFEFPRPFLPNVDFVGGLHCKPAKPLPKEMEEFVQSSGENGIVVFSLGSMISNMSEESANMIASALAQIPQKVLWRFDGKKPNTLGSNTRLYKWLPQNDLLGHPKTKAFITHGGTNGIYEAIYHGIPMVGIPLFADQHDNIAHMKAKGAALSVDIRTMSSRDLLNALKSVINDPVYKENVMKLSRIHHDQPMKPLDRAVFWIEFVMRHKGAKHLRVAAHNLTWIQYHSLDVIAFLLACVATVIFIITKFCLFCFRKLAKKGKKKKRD
The experiment in a line: UGT activity: utilization of substrate by recombinant UGT 2B15 Supersomes. The following applies: 2 hour incubation at 37° C., plus vs minus UDPGA. As to the method: as §1, §2, §3

Each structure is given as a SMILES string.

Take `Cc1cc(O)cc2sc(C3=NC(C(=O)O)CS3)nc12` (stereo not drawn) [compound 3478]: in experiment [1], the “% utilization by UGT 2B7” value is on record as at most 15%. In experiment [2], the “% utilization by UGT 1A10” value is given as at most 15%. In addition, the “utilization by UGT 2B15 (in words)” value in experiment [3] is given as “only UGT 1A6 was able to utilize compound 3478 to any appreciable extent”.
Regarding `Cc1cc(O)cc2sc(C#N)nc12` [compound 3138], the “% utilization by UGT 2B7” value in experiment [1] is listed as “over 50%”. Moreover, in experiment [2], the “% utilization by UGT 1A10” value is on record as “over 50%”. In experiment [3], the “utilization by UGT 2B15 (in words)” value is recorded as “detectable levels of utilization above background”.
